Results on 1 compound are retold here after ChEMBL document CHEMBL3588776, “Inhibitors of the human neuraminidase enzymes” (Medchemcomm, 2014).

The assay addresses T1, Sialidase-3 (Homo sapiens, UniProt Q9UQ49).
T1 sequence (Q9UQ49 whole entry): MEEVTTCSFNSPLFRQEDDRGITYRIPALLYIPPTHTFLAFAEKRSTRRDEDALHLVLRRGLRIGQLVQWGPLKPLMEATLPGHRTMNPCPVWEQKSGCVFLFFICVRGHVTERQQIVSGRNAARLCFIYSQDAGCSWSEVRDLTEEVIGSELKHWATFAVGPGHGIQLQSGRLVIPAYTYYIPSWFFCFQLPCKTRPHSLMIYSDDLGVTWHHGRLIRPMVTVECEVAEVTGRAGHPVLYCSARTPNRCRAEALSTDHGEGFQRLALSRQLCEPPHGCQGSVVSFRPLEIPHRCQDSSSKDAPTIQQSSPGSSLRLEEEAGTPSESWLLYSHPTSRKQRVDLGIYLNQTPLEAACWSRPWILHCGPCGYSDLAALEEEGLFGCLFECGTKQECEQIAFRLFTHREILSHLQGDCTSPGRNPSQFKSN
Briefly: Inhibition of human recombinant NEU3 expressed in Escherichia coli pre-incubated for 10 mins before addition of followed by the addition of MUNANA substrate.

For orientation: IC50 means the concentration at which inhibition is half-maximal. Turning to `C#CCCC(=O)N[C@@H]1[C@@H](O)[C@@H](F)[C@](F)(C(=O)O)O[C@H]1[C@H](O)[C@H](O)CO`, the IC50 was determined as 5 µM.
